According to patent US20120302636A1, “METHOD OF TREATING A DISORDER ASSOCIATED WITH MTP” (priority 2009, published 2012):
“Also recorded” adds a separate entry of the source.

Legend:
serum lipid levels [1] = assay: Example 1: serum lipid levels; assay type: in vivo, human
Procedure: In this study, lipids related to lipoprotein metabolism were determined as serum lipid test items. In the active group, postprandial elevations for RLP-C, TG, LDL-TG, HDL-TG, CM-TG, and ApoB48 (reference data) were inhibited, while LDL-C, HDL-C, TC, and ApoB values decreased. The manifestation of those effects required 3 to 7 days. […] This effect is attributable to the inhibition of diet-derived lipid absorption based on the MTP inhibitory activity of the compound of formula (I) in the small intestine.

[2] = Earlier phase 1 single dose clinical study; assay type: in vivo, human
[3] = Example 2: plasma and urine pharmacokinetics; assay type: in vivo, human
Procedure: (§1) Each tablet contained 5 mg (BID), 10 mg (QD), 20 mg (QD), or 30 mg (QD).

serum lipid levels [4] = assay: Example 2: serum lipid levels; assay type: in vivo, human
Procedure: as §1

serum lipid levels [5] = assay: Example 3: serum lipid levels; assay type: in vivo, human; settings: active groups
Procedure: Eighteen healthy Japanese males 20 to 35 years of age with a BMI of 18.5 to 25 kg/m^2 participated in the study. The subjects were divided into two dosing groups and within each dosing group, the subjects were divided as follows: 6 subjects received the compound of formula (I) and 3 subjects received placebo. The dosing regimen was oral administration of a tablet twice a day for 14 days after breakfast and dinner (specifically, within 180 minutes of the commencement of eating), in which each tablet contained 1 mg (2 mg/day) or 2 mg (4 mg/day).

[6] = Example 4: pharmacokinetics; assay type: in vivo, human
Procedure: One hundred five Japanese patients with hyperlipidemia (LDL-C between 140 and 220 mg/dL; TG≦400 mg/dL) participated in the study. […] For the efficacy analysis, 95 subjects were observed (0.5 mg BID: 25 subjects, 1 mg BID: 24 subjects, 2 mg BID: 22 subjects, 4 mg BID: 24 subjects).

[7] = Example 6: ascending dose study in healthy males and HTG patients, safety; assay type: in vivo
From the text: (§2) Originally, the study was planned as 4 sequential cohorts of healthy male Caucasian subjects (Cohorts 1 to 4) followed by a cohort of male Caucasian patients with elevated triglycerides (HTG patients, Cohort 5). An additional cohort of healthy male Caucasian subjects (Cohort 4.1) was enrolled into the study (6 cohorts in total). The cohorts were as follows: Cohorts 1 to 4.1 had healthy Caucasian males, aged 18-45 years with a body weight of 60-100 kg and body mass index (BMI) between 19-28 kg/m^2 at screening and fasting triglycerides less than 1.69 mmol/L (less than 150 mg/dL) at the screening visit and Day-3. Cohort 5 had Caucasian males, aged 18-50 years with a body weight of 60-115 kg and BMI less than 35 kg/m^2 at screening and with elevated fasting triglycerides (TG≧1.69 mmol/L and <5.62 mmol/L; ≧150 mg/dL and <500 mg/dL) at the screening visit and Day-3.
(§3) The planned treatment for Cohorts 1 to 4 was twice daily administration of 5 mg, 10 mg or 15 mg the compound of formula (I)/placebo, or once daily administration of 30 mg the compound of formula (1)/placebo. […] As only the compound of formula (I) 5 mg capsules were supplied for this study, doses were administered once daily to determine the maximum tolerated dose, and the planned doses for each subsequent cohort were amended based on the safety and tolerability data obtained from the preceding cohort. The dose level and dosing schedule planned for the patients in Cohort 5 was determined by the maximum tolerated dose and dosing schedule as reported from the planned Cohorts 1 to 4.1.
(§4) Twelve healthy male Caucasian subjects were enrolled in each of Cohorts 1 to 4.1; dose cohorts were randomized in a ratio 9:3 to receive the compound of formula (I) or placebo, respectively, at the dose level associated with that cohort. Twelve male Caucasian patients with elevated triglycerides were randomized in a ratio of 8:4 to receive the compound of formula (I) or placebo, respectively, at the maximum tolerated dose level and dosing schedule.
This study was conducted to investigate the safety and tolerability of the compound of formula (I) and to determine the pharmacokinetic and pharmacodynamic profiles of the compound of formula (I) administered, either once or twice a day, for 14 days to healthy non-fasting male Caucasian subjects and male Caucasian HTG patients. The planned treatment for Cohorts 1 to 4 was twice daily administration of 5 mg, 10 mg or 15 mg the compound of formula (I)/placebo, or once daily administration of 30 mg the compound of formula (I)/placebo. […] Consequently, doses were administered once daily to healthy volunteers, and the planned doses for each subsequent cohort were amended based on the safety and tolerability data obtained from the preceding cohort.

[8] = Example 6: pharmacokinetics; assay type: in vivo, human; settings: 5 to 20 mg QD and BID, healthy males; generally BLQ
From the text: as §2, §3, §4

serum lipid levels [9] = assay: Example 6: serum lipid levels / pharmacodynamics; assay type: in vivo, human
From the text: as §2, §3, §4

[10] = Example 8: 12-week study in obese subjects, efficacy; settings: for mean change from baseline to EOT in body weight: 12 weeks
From the text: This example involved a clinical study of the compound of formula (I), which was a randomized, double-blind, placebo-controlled, parallel group study to evaluate the efficacy of the compound of formula (I) administered twice daily for twelve weeks in obese subjects.
The study had 180 participants. The 180 subjects comprised 59 males and 121 females, 18 to 65 years old, with BMI≧30 kg/m^2 to <40 kg/m^2. The subjects were separated into four arms of 45 subjects, including one arm as placebo. Each test subject received a tablet taken orally over a period of 12 weeks after breakfast and dinner (BID) (specifically, within 180 minutes of the commencement of eating) of 1 mg, 2.5 mg, or 3.5 mg, using one or multiples of tablets of 1 mg and 2.5 mg of the compound of formula (I) to achieve the total dose. Of the total entrants, 40 entrants completed the 1 mg regimen, 42 entrants completed the 2.5 mg regimen, 41 entrants completed the 3.5 mg regimen, and 42 entrants completed the placebo regimen.
This study was designed to investigate the weight loss effect of the compound of formula (I) administered BID for 12 weeks to obese subjects. The effect of the compound of formula (I) on ancillary efficacy measures (e.g., waist circumference, waist-hip ratio, percent body fat, serum lipid parameters, and markers related to glycemic control, obesity, and inflammation) was also evaluated, as was safety. The primary efficacy variable was body weight change from baseline after 12 weeks of treatment.

[11] = 10, 20, 30 mg QD, initial dose Day 1

For CCOC(=O)C(COC(=O)Cc1ccc(NC(=O)c2ccccc2-c2ccc(C(F)(F)F)cc2)c(C(=O)N(C)C)c1)(C(=O)OCC)c1ccccc1 [compound of formula (I), diethyl 2-((2-(3-(dimethylcarbamoyl)-4-(4′-(trifiuoromethyl)biphenyl-2-ylcarboxamido)phenyl)acetoxy)methyl)-2-phenyl malonate], the “LDL-C, HDL-C, TC, and ApoB values” (serum lipid levels [1]; active group) was “decreased”, the “postprandial elevations for RLP-C, TG, LDL-TG, HDL-TG, CM-TG, and ApoB48” value (serum lipid levels [1]; active group) was “inhibited” and the “increase in postprandial values for RLP-C, TG, LDL-TG, HDL-TG, and CM-TG” value (serum lipid levels [1]; after the first dose on Day 1) was “inhibited an increase”. The “doses at which diarrhea was observed” value [2] was no less than 60 mg, the “subjects with Cmin detected sporadically” value ([3]; 5 mg BID) was 4 of 6 subjects and the “Cmin of the compound of formula (I)” value ([3]; 10 mg QD, Day 2 to 14) was “below the limit of quantization”. For the same molecule, the “subjects with Cmin detected sporadically” value ([3]; 20 mg QD) was 1 of 6 subjects, the “subjects with Cmin detected sporadically” value ([3]; 30 mg QD) was 4 of 6 subjects and the AUC0-24hr dose proportionality [3, 11] was “greater than dose-proportional”. For the same molecule, the Cmax dose proportionality [3, 11] was “greater than dose-proportional”, the “plasma compound of formula (I)” value ([3]; after initial dose on Day 1, all groups) was “quantifiable” and the compound in urine ([3]; all groups) was “not quantifiable in urine”. For the same molecule, the “Cmin of the compound of formula (I)” value ([3]; all subjects) was “less than 3 ng/mL”, the “Cmax and AUC0-24hr dose proportionality” value ([3]; final dose on Day 14) was “dose-proportional” and the “postprandial elevations for TG, HDL-TG, LDL-TG, Midband-TG, VLDL-TG, CM-TG, and ApoB48” value (serum lipid levels [4]; active group) was “suppressed”. The “TC, HDL-C, LDL-C, and ApoB values” (serum lipid levels [4]; by and after Day 7) was “decreased”, the “postprandial elevation in TG, HDL-TG, LDL-TG, Midband-TG, and CM-TG” value (serum lipid levels [5]) was “inhibited a postprandial elevation” and the “plasma compound of formula (I) concentrations” value ([6]; 0.5 and 1 mg BID, not quantifiable) was less than 0.3 ng/mL. For the same molecule, the “plasma compound of formula (I) concentrations” value ([6]; 2 and 4 mg BID) was “not quantifiable, except in a few sporadic cases”, the “subjects withdrawn due to adverse events” value ([7]; 5 mg BID, Cohort 1) was 5 subjects and the tolerability ([7]; 5 mg BID, HTG patients, Cohort 5) was “reasonably well tolerated”. The tolerability ([7]; 5 mg BID, healthy subjects, Cohort 1) was “poorly tolerated; also recorded: not well tolerated”, the “subjects reporting treatment-emergent adverse events” value ([7]; HTG patients receiving compound, Cohort 5) was 88 % of treatment group and the “safety analyses (liver MRIs, tryptase, fat soluble vitamins, fecal fat)” value ([7]; any cohort) was “no clinically relevant findings”. For the same molecule, the “subjects reporting treatment-emergent adverse events” value ([7]; healthy subjects receiving compound) was 76 % of treatment group, the tolerability ([7]; healthy subjects, Cohorts 2 (5 mg QD), 3 (10 mg QD), 4 (15 mg QD), 4.1 (20 mg QD)) was “reasonably well-tolerated” and the “fatty liver (liver MRI)” value ([7]; human, in vivo) was “without the presence of fatty liver”. The renal function tests ([7]; human, in vivo) was “did not suggest drug-related nephrotoxicity or hyperglycaemia”, the “plasma concentrations of the compound of formula (I)” value [8] was less than 3 ng/mL and the “effects on LDL-C, HDL-C, VLDL-C, and VLDL-TG vs QD regimens” value (serum lipid levels [9]; 5 mg BID) was “more marked effects”. For the same molecule, the “expected postprandial increase of TG and chylomicron-TG” value (serum lipid levels [9]; healthy subjects and patients with high TG) was “suppressed”, the “campesterol (marker of cholesterol absorption)” value (serum lipid levels [9]; in vivo) was “affects campesterol” and the “lathosterol (marker of cholesterol synthesis by the liver)” value (serum lipid levels [9]; in vivo) was “not lathosterol”. The “impact on triglyceride-rich lipoproteins (ApoCII, ApoCIII, VLDL-TG, VLDL-C)” value (serum lipid levels [9]; once-daily regimen) was “no discernible impact”, the “mean change from baseline to EOT in body weight” value (“mean change from baseline to EOT” below) ([10]; 1 mg BID) was -0.70 kg and the “mean change from baseline to EOT” value ([10]; 2.5 mg BID) was -1.74 kg. For the same molecule, the “mean change from baseline to EOT” value ([10]; 3.5 mg BID) was -2.19 kg, the “waist circumference, waist-hip ratio, percent body fat vs placebo” value ([10]; after 12 weeks) was “No statistically significant differences” and the “mean decreases from baseline LDL-C” value ([10]; after 12 weeks, 3 compound groups) was −5.90 to −8.27 mg/dL. For the same molecule, the triglyceride levels ([10]; all treatment groups) was “increased from baseline”, the “TC and ApoB” value ([10]; human, in vivo) was “improvements (reductions)” and the “weight loss by perilipin gene mutation” value ([10]; human, in vivo) was “no differences”.
